US20240246967A1, “AXL COMPOUNDS” (ARCUS BIOSCIENCES, INC., priority 2021, published 2024)

How the values were obtained:
[1] = molecular target: T1, human MER (Homo sapiens, UniProt Q12866); test: HTRF KinEASE-TK biochemical potency assay, MER; conditions: 1 nM MER, 700 μM ATP, 800 nM TK Substrate-biotin
T1 construct: purchased Invitrogen
T1 sequence (Q12866 21-999): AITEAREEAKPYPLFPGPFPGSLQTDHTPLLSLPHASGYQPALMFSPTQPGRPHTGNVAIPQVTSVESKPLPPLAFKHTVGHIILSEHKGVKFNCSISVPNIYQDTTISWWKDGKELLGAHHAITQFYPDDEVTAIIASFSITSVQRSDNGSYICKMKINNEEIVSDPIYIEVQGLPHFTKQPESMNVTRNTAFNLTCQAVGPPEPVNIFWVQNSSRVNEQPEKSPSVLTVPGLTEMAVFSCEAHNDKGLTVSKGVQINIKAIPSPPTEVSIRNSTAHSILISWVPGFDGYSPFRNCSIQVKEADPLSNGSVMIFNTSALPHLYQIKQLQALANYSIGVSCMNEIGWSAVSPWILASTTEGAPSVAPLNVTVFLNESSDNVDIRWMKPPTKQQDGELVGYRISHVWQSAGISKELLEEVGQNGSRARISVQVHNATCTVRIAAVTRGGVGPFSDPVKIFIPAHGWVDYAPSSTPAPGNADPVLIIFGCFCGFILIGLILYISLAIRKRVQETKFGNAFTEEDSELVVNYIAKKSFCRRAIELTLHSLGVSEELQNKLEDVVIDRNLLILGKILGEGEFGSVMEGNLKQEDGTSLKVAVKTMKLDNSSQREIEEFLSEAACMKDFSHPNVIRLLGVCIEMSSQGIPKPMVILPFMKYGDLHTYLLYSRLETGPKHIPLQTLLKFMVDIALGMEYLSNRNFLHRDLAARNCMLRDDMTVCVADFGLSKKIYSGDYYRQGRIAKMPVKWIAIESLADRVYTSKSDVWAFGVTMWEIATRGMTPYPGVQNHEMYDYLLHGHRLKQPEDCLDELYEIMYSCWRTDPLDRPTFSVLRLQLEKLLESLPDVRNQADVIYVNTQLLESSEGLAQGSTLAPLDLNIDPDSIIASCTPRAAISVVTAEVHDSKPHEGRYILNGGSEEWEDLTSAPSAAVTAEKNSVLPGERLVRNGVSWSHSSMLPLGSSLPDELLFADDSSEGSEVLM
In short: (§1)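 Recombinant human kinase preincubated 1 h at RT with compound, then reacted 2 h at RT with 800 nM biotin-TK substrate and 700 μM ATP (final; 5 nM AXL, 1 nM TYRO3 or MER) in HEPES pH 7.4, MgCl2, BSA, DTT, 1% DMSO. HTRF 665/620 ratio read; percent activity versus DMSO and pre-quenched controls.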

[2] = molecular target: T2, human TYRO3 (Homo sapiens, UniProt Q06418); test: HTRF KinEASE-TK biochemical potency assay, TYRO3; conditions: 1 nM TYRO3, 700 μM ATP, 800 nM TK Substrate-biotin
T2 construct: purchased Invitrogen
T2 sequence (Q06418 41-890): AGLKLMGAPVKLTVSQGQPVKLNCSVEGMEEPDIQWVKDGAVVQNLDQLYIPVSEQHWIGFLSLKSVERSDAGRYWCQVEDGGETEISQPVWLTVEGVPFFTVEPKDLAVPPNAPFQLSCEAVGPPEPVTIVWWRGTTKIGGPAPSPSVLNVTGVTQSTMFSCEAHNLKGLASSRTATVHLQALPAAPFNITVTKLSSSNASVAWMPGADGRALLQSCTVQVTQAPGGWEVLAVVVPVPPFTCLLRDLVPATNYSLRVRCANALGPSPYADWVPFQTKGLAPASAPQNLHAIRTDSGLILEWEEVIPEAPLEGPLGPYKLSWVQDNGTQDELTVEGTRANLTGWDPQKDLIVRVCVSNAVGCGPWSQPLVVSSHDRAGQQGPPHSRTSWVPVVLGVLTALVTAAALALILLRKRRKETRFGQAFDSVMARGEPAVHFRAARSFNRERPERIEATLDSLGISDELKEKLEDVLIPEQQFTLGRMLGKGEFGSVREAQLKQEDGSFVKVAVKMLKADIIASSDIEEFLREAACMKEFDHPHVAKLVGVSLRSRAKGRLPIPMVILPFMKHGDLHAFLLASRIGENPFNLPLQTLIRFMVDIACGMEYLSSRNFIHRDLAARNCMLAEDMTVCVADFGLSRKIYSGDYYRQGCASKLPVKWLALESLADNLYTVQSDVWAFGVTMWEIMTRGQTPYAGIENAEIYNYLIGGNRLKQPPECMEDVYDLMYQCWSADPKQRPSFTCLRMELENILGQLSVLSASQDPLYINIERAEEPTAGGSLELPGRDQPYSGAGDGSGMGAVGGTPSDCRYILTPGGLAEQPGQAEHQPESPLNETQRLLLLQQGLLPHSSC
In short: as §1

SMILES | IC50 [1] | IC50 [2]
C[C@@H]1CCCN1C1(C)CCc2ccc(-c3cnc4[nH]nc(-c5ccc(S(=O)(=O)C6CC6)cc5)c4c3)cc2CC1 (stereo partly drawn) [Example 1, 3-(4-(Cyclopropylsulfonyl)phenyl)-5-(7-methyl-7-((R)-2-methylpyrrolidin-1-yl)-6,7,8,9-tetrahydro-5H-benzo[7]annulen-2-yl)-1H-pyrazolo[3,4-b]pyridine] | 100 to 1000 nM | < 100 nM
Cc1cc(-c2n[nH]c3ncc(-c4ccc5c(c4)CCC(N4CCCC4)CC5)cc23)cc(F)c1C(N)=O (stereo not shown) [Example 79, 2-Fluoro-6-methyl-4-(5-(7-(pyrrolidin-1-yl)-6,7,8,9-tetrahydro-5H-benzo[7]annulen-2-yl)-1H-pyrazolo[3,4-b]pyridin-3-yl)benzamide] | 100 to 1000 nM | < 100 nM
COc1cc(-c2n[nH]c3ncc(-c4ccc5c(c4)CCC(C)(N4CCC[C@H]4C)CC5)cc23)ccc1S(N)(=O)=O (stereo partly drawn) [Example 87, 2-Methoxy-4-(5-(7-methyl-7-((R)-2-methylpyrrolidin-1-yl)-6,7,8,9-tetrahydro-5H-benzo[7]annulen-2-yl)-1H-pyrazolo[3,4-b]pyridin-3-yl)benzenesulfonamide] | 100 to 1000 nM | 100 to 1000 nM

Now from value to compound:

IC50 [1] | IC50 [2] | SMILES
< 100 nM | < 100 nM | O=C(c1ccc(-c2n[nH]c3ncc(-c4ccc5c(c4)CC[C@@H](N4CCCC4)CC5)cc23)cc1Cl)N1CCNCC1 [Example 82, (S)-(2-Chloro-4-(5-(7-(pyrrolidin-1-yl)-6,7,8,9-tetrahydro-5H-benzo[7]annulen-2-yl)-1H-pyrazolo[3,4-b]pyridin-3-yl)phenyl)(piperazin-1-yl)methanone]
< 100 nM | < 100 nM | NC(=O)c1ccc(-c2n[nH]c3ncc(-c4ccc5c(c4)CCC(N4CCCC4)CC5)cc23)cc1Cl (stereo not shown) [Example 77, 2-Chloro-4-(5-(7-(pyrrolidin-1-yl)-6,7,8,9-tetrahydro-5H-benzo[7]annulen-2-yl)-1H-pyrazolo[3,4-b]pyridin-3-yl)benzamide]
